Several values for one entry are separate records, joined by “and”; a condition that tells them apart may be missing. Equal entries are not always repeated. Where two headings read alike, the source gives them in different places.
Key:
[1] = system: HPAFII cells; experiment: Growth assay (IncuCyte confluence), HPAFII; assay type: cell-based, human; design: key to Growth (Figure 6A) / cell confluence (Figure 6F): % confluence
Procedure: (§1) Cells were seeded on 96-well flat bottom plates at approximately 3000 cells/well and incubated in growth medium (DMEM/F12 supplemented with 10% FBS, 2 mM glutamine) for 24 h. The next day, the growth medium was aspirated and exchanged with 300 μL/well of growth medium containing compounds at the indicated concentration. For live cell analysis, plates were placed in the IncuCyte system (Essen Bioscience), which was housed in a cell incubator (37°C, humidified atmosphere composed of 95% air and 5% CO2) and confluence measured at 6-h intervals or at the assay endpoint when untreated control cells reached a confluency >90%. Antibiotics (10 U/mL penicillin and 10 μg/ml streptomycin) were included in the treatment solutions.
(§2) Growth curves were generated using the Gompertz function of OriginPro software: y=ae^−e^(−k(x−xc))
(§3) Where a is the maximum confluence or upper asymptote, k is the growth rate coefficient, xc is the time point at which 50% confluence is reached (inflection point) and e is Euler’s number. Cell growth data are shown as % confluence.
Synergism between drug combinations was quantified using ZIP synergy scoring as calculated by SynergyFinder ([Yadav et al., 2015]).

[2] = system: HCC1806 cells; experiment: Growth assay (IncuCyte confluence), HCC1806; assay type: cell-based, human; settings: HCC1806, growth medium
Procedure: as §1, §2, §3

[3] = molecular target: T1, SNAT2 (Homo sapiens, UniProt Q96QD8); experiment: Radiolabelled proline uptake in amino acid depleted SKOV3 cells; assay type: cell-based; design: SKOV3 cells pre-incubated in starvation medium for 24 h to induce SNAT2 expression; endogenous in cells; host or cells: SKOV3 ovarian cancer cells, amino acid depleted for 15 or 24 h
T1 sequence (Q96QD8 1-506): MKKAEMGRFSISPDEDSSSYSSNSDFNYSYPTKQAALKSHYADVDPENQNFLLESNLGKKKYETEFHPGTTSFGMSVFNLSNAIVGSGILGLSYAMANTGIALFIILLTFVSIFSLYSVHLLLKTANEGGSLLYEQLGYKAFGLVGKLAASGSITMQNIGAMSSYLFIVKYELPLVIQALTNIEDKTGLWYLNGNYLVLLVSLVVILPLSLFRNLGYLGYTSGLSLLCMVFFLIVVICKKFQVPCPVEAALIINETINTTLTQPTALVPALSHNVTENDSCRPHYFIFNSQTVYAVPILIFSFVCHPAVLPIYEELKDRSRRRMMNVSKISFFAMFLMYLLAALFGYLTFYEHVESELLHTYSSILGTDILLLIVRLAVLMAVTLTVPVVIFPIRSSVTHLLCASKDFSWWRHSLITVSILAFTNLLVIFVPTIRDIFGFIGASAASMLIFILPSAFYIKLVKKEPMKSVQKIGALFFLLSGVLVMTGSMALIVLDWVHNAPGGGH
Procedure: Functional characterisation of plasma membrane transporters in human cancer cells was determined at 37°C using an array of radiolabelled amino acid substrates. Modified Hanks HEPES-buffered salts solution (mHBSS; 137 mM NaCl; 5.4 mM KCl; 2.7 mM K2HPO4; 1 mM CaCl2; 0.5 mM MgCl2; 0.44 mM KH2PO4; 0.4 mM MgSO4; 5 mM D-glucose; 5 mM HEPES; pH 7.4) was used to wash and incubate cells where sodium dependent transport was measured, while N-methyl-D-glucamine (NMDG) and potassium salts substituted sodium in NMDG mHBSS to measure sodium independent uptake. For the assay, cells were seeded in 35 mm dishes and, once confluent, were washed thrice with warm mHBSS solution and incubated with mHBSS containing an 100 µM amino acid at a final specific activity of ≥2000 cpm/nmol (U-[^14C]amino acids were from PerkinElmer). After 6 min, cells were washed thrice with ice-cold mHBSS, lysed with 500 µl of 0.1 M HCl, detached with a cell scraper and triturated. A 400 µl aliquot was used for scintillation counting, while the remainder was saved for protein mass quantification by Bradford assay. Transport rates were normalised to the protein content of the culture dish.
IC50 were calculated using equation y=ymax(1−x/x+IC50)

[4] = system: SNAT1/2; experiment: FMP assay: depolarisation by amino acid substrates in amino acid depleted HCC1806 cells; assay type: cell-based, human
Procedure: The FLIPR Membrane Potential Blue Explorer Kit (Molecular Devices) was used to characterise inhibitors and to optimise a high-throughput compound screen. Cells were seeded at approximately 60,000 cells/well on a 96-well plate and allowed to attach and grow overnight in a cell incubator. […] Cells were then washed once with mHBSS and incubated with 50 µl of the mHBSS-resuspended FMP assay dye and 50 µl of mHBSS (with or without inhibitors) and incubated at room temperature for 30 min. The plate was then placed in an EnSpire Multimode plate reader (PerkinElmer) and four sequential measurements of fluorescence were recorded as a baseline reference. Immediately after the baseline measurements were taken, 25 µl of 5 mM glutamine dissolved in mHBSS was injected into each well and the plate was shaken orbitally for 5 s before a series of consecutive fluorescence measurements were taken. The excitation wavelength was set to 530 nm and the emission was detected at 565 nm. […] After the assay was complete, the liquid content of the plate was carefully removed, and the cell monolayer inspected to ensure it remained intact throughout the course of the assay.

Cc1ccc(S(=O)(=O)N(C)c2ccsc2C(=O)NCc2ccccc2C(F)(F)F)cc1 [Compound 57_E, 3-(N-methyl (4-methylphenyl)sulfonamido)-N-(2-trifluoromethylbenzyl)thiophene-2-carboxamide]
tolerated concentration [1]: ≤ 100 µM
Growth (Figure 6A) ([1]; concentration 1): 93.8 and 96.25 and 96.4
Growth (Figure 6A) ([1]; concentration 3): 93.35 and 98.85 and 97.6
Growth (Figure 6A) ([1]; concentration 10): 91.1 and 94.2 and 97.05
Growth (Figure 6A) ([1]; concentration 30): 73 and 75.75 and 89.85
Growth (Figure 6A) ([1]; concentration 100): 46.05 and 59.8 and 57.25
tolerated concentration ([1]; growth medium): up to 30 μM
tolerated concentration [2]: up to 30 μM
SNAT2 transport rate of proline ([3]; Concentration 0.01 uM, betaine resistant transport subtracted): 5.421 nmol / mg protein x 6 min
SNAT2 transport rate of proline ([3]; Concentration 0.03 uM): 5.227 nmol / mg protein x 6 min
SNAT2 transport rate of proline ([3]; Concentration 0.1 uM): 4.344 nmol / mg protein x 6 min
SNAT2 transport rate of proline ([3]; Concentration 0.3 uM): 3.331 nmol / mg protein x 6 min
SNAT2 transport rate of proline ([3]; Concentration 1 uM): 2.267 nmol / mg protein x 6 min
SNAT2 transport rate of proline ([3]; Concentration 3 uM): -0.2231 nmol / mg protein x 6 min
SNAT2 transport rate of proline ([3]; Concentration 10 uM): -0.6681 nmol / mg protein x 6 min
IC50 ([3]; betaine-sensitive fraction of proline uptake, SKOV3 AA- (15h)): 0.8 ± 0.4 µM
IC50 ([3]; in two different assays): 0.8 to 3 µM

NC(=O)CC[C@H](N)C(=O)O [Glutamine, glutamine]
FMP response as substrate ([4]; 1 mM): strongest response
Km ([4]; FMP signal plateau vs glutamine concentration, HCC1806 AA- (24h)): 120 ± 10 µM
FMP fluorescence reading ([4]; glutamine 0.01mM, t=60 s): 68858 and 69253 and 69708
FMP fluorescence reading ([4]; glutamine 0.01mM, t=75 s): 69325 and 69681 and 70188
FMP fluorescence reading ([4]; glutamine 0.01mM, t=90 s): 69269 and 70070 and 70405
FMP fluorescence reading ([4]; glutamine 0.01mM, t=105 s): 69763 and 69788 and 70466
FMP fluorescence reading ([4]; glutamine 0.03mM (c24-c26), t=60 s): 77460 and 80576 and 83628
FMP fluorescence reading ([4]; glutamine 0.03mM (c24-c26), t=75 s): 77730 and 80978 and 84391
FMP fluorescence reading ([4]; glutamine 0.03mM (c24-c26), t=90 s): 78184 and 81512 and 84232
FMP fluorescence reading ([4]; glutamine 0.03mM (c24-c26), t=105 s): 78227 and 82096 and 85186
FMP fluorescence reading ([4]; glutamine 0.03mM (last group, c32-c34), t=60 s): 64072 and 69800 and 70295
FMP fluorescence reading ([4]; glutamine 0.03mM (last group, c32-c34), t=75 s): 63883 and 70289 and 71073
FMP fluorescence reading ([4]; glutamine 0.03mM (last group, c32-c34), t=90 s): 63947 and 70196 and 70790
FMP fluorescence reading ([4]; glutamine 0.03mM (last group, c32-c34), t=105 s): 64771 and 70484 and 71450
FMP fluorescence reading ([4]; glutamine 0.1mM, t=60 s): 88925 and 96285 and 98180
FMP fluorescence reading ([4]; glutamine 0.1mM, t=75 s): 90234 and 97546 and 98972
FMP fluorescence reading ([4]; glutamine 0.1mM, t=90 s): 91221 and 98690 and 100400
FMP fluorescence reading ([4]; glutamine 0.1mM, t=105 s): 92076 and 98971 and 100952
FMP fluorescence reading ([4]; glutamine 0.3mM, t=60 s): 99455 and 107961 and 111369
FMP fluorescence reading ([4]; glutamine 0.3mM, t=75 s): 100398 and 109749 and 113586
FMP fluorescence reading ([4]; glutamine 0.3mM, t=90 s): 101543 and 111206 and 114721
FMP fluorescence reading ([4]; glutamine 0.3mM, t=105 s): 102418 and 111967 and 115020
FMP fluorescence reading ([4]; glutamine 1mM, t=60 s): 112569 and 120148 and 129663
FMP fluorescence reading ([4]; glutamine 1mM, t=75 s): 115039 and 122576 and 131835
FMP fluorescence reading ([4]; glutamine 1mM, t=90 s): 116433 and 124735 and 133470
FMP fluorescence reading ([4]; glutamine 1mM, t=105 s): 117747 and 125438 and 134724
FMP fluorescence reading ([4]; glutamine 1mM, t=120 s): 118812 and 126597 and 134693
FMP fluorescence reading ([4]; glutamine 3mM, t=60 s): 133412 and 124199 and 129325
FMP fluorescence reading ([4]; glutamine 3mM, t=75 s): 135706 and 127374 and 131981
FMP fluorescence reading ([4]; glutamine 3mM, t=90 s): 138077 and 129014 and 134980
FMP fluorescence reading ([4]; glutamine 3mM, t=105 s): 139888 and 130819 and 136553
FMP fluorescence reading ([4]; glutamine 3mM, t=120 s): 140944
FMP fluorescence reading ([4]; glutamine 10mM, t=60 s): 123199 and 132978 and 133617
FMP fluorescence reading ([4]; glutamine 10mM, t=75 s): 127611 and 136168 and 137553
FMP fluorescence reading ([4]; glutamine 10mM, t=90 s): 130129 and 138788 and 140464
FMP fluorescence reading ([4]; glutamine 10mM, t=105 s): 132559 and 141221 and 142567

— article PMC9532951, “Identification and characterization of a novel SNAT2 (SLC38A2) inhibitor reveals synergy with glucose transport inhibition in cancer cells” (Frontiers in Pharmacology, 2022)
